Data from patent US8263044B2, “Stilbene like compounds as novel HDAC inhibitors” (Orchid Research Laboratories Limited, priority 2005, dated 2012).
pIC50: −log10 of the molar value.

How the values were obtained:
MDAMB231/U251 [1] = experiment: cells; settings: 48 h, read-out: MDAMB231/U251 GI50
Protocol: (§1) Experimental drugs are screened for anti-cancer activity in three cell lines for their GI50, TGI and LC50 values (using five concentrations for each compound). The cell lines are maintained in DMEM containing 10% fetal bovine serum. 96 well micro titer plates are inoculated with cells in 100 μL for 24 h at 37° C., 5% CO2, 95% air and 100% relative humidity. 5000 HCT 116 cells/well, 5000 NCIH 460 cells/well and 5000 U251 cells/well are plated. A separate plate with these cell lines is also inoculated to determine cell viability before the addition of the compounds (T0) (See Table I).
(§2) Following 24-hour incubation, experimental drugs are added to the 96 well plates. Each plate contains one of the above cell lines and the following in triplicate: five different concentrations (0.01, 0.1, 1, 10 and 100 μM) of four different compounds, appropriate dilutions of a cytotoxic standard and control (untreated) wells. Compounds are dissolved in DMSO to make 20 mM stock solutions on the day of drug addition and frozen at −20° C. Serial dilutions of these 20 mM stock solutions are made in complete growth medium such that 100 μL of these drug solutions in medium, of final concentrations equaling 0.01, 0.1, 1, 10 and 100 μM can be added to the cells in triplicate. […] (See Table I).
(§3) For T0 measurement, 24 hours after seeding the cells, 10 μL of 3-(4,5-Dimethyl-2-thiazolyl)-2,5-diphenyl-2H-tetrazolium (MTT) solution per well is added and incubation carried out for 3 hours at 37° C., 5% CO2, 95% air and 100% relative humidity, protected from light. Cells incubated with compounds for 48 hours are treated similarly except with the addition of 20 μL MTT solution per well and a subsequent incubation under the same conditions. After 3 hours of MTT incubation, well contents are aspirated carefully followed by addition of 150 μL DMSO per well. Plates are agitated to ensure solution of the formazan crystals in DMSO and absorbance read at 570 nm. (See Table I).
(§4) Percent growth is calculated for each compound's concentration relative to the control and zero measurement wells (T0; viability right before compound addition).
(§5) If a test well's O.D. value is lower than the T0 measurement for that cell line, then, % Growth=(test−zero)/zero×100

NCIH 460 cells = experiment: cells; settings: Homo sapiens, NCI-H460, 48 h; for GI50: read-out: NCIH460 GI50; for CC50: read-out: NCIH460 LC50
Protocol: as §1, §2, §3, §4, §5

HCT 116 cells = experiment: cells; settings: Homo sapiens, HCT-116, 48 h; for GI50: read-out: HCT116 GI50; for CC50: read-out: HCT116 LC50
Protocol: as §1, §2, §3, §4, §5

[2] = system: HDAC activity (Mouse Liver Extract); experiment: Histone Deacetylase (HDAC) Inhibition Assay using Boc-Lys (Ac)-AMC Substrate; type: biochemical; settings: mouse liver enzyme; for HDAC Inhibition 1 μM: inhibitor at 1 μM; for HDAC Inhibition 1 μM / HDAC Inhibition 10 μM: in % (unit assumed); for HDAC Inhibition 10 μM: inhibitor at 10 μM
Protocol: Histone Deacetylase (HDAC) Inhibition Assay using Boc-Lys (Ac)-AMC Substrate: Inhibition of HDAC has been implicated to modulate transcription and to induce apoptosis or differentiation in cancer cells. The fluorometric assay provides a fast and fluorescence based method that eliminates radioactivity, extractions or chromatography, as used in traditional assays. The assay based on two steps. First, the HDAC fluorometric substrate, which comprises an acetylated lysine side chain, is incubated with a sample containing HDAC activity (Mouse Liver Extract). Deacetylation of the substrate sensitizes the substrate, in the second step; treatment with the Trypsin stop solution produces a fluorophore that can be easily analyzed using fluorescence plate reader.
Assay was done in 96 well black microplate and total volume of the assay is 100 ul. Mouse liver enzyme is diluted 1:6 with HDAC buffer. Enzyme cocktail made of 10 ul of diluted enzyme and 30 ul of HDAC buffer. 40 ul of enzyme cocktail dispensed into each well. 10 ul of different concentrations of inhibitor added in to each well, except enzyme control well. Preincubated the plate at 30° C. for 5 minutes. The HDAC reaction is started by adding 50 ul of HDAC substrate (Boc-Lys (Ac)-AMC Substrate) solution. Incubated the plate at 30° C. for 30 minutes. Adding 100 ul of Trypsin stop solution stops the reaction. The plate is incubated again at 30° C. for 20-30 minutes. The release of AMC is monitored by measuring the fluorescence at excitation wavelength of 365 or 360 nm and emission wavelength of 440 or 460 nm. Buffer and substrate alone kept for blank subtraction. (Dennis Wegener et al, Anal. Biochem, 321, 2003, 202-208).

MDAMB231/U251 [3] = experiment: cells; settings: 48 h, read-out: MDAMB231/U251 LC50
[4] = system: NCIH460, HCT116, MDAMB231/U251; experiment: Anti-cancer screen, mean GI50 over the cell lines; type: cell-based; settings: mean over the three cell lines; no unit in table
Protocol: as §1, §2, §3
Percent growth is calculated for each compound's concentration relative to the control and zero measurement wells (T0; viability right before compound addition). […]

Row | SMILES | GI50 (MDAMB231/U251 [1]) | GI50 (NCIH 460 cells) | CC50 (NCIH 460 cells) | GI50 (HCT 116 cells) | CC50 (HCT 116 cells) | HDAC Inhibition 1 μM [2] | HDAC Inhibition 10 μM [2] | CC50 (MDAMB231/U251 [3]) | GI50 [4] | pIC50 [2]
1 | CSc1ccc(/C=C(\C(=O)NCCCCCC(=O)Nc2nc3cc(C)ccc3s2)c2ccc(F)cc2)cc1 [Example 19, (2Z)-3-(4-Thiomethylphenyl)-2-(4-fluorophenyl)-N-[6-(5-methyl-2-benzothiazoleamine)-6-oxohexyl]acrylamide] | 5.8 µM | 8 µM | > 100 µM | > 100 µM | > 100 µM | −22.2 | 10.2 | > 100 µM | 6.9 µM | 
2 | CSc1ccc(/C=C(\C(=O)NCCCCCC(=O)NO)c2ccc(F)cc2)cc1 [Example 16, (2Z)-3-(4-Thiomethylphenyl)-2-(4-fluorophenyl)-N-[6-(hydroxyamine)-6-oxohexyl]acrylamide] | 0.15 µM | 0.01 µM | 24 µM | 1.9 µM | 32 µM | 68 | 83 | 90 µM | 0.7 µM | 7.21
3 | O=C(CCCCCNC(=O)/C(=C\c1ccc(Cl)o1)c1ccc(F)cc1)NO [Example 37, (2Z)-3-(5-Chloro-2-furyl)-2-(4-fluorophenyl)-N-[6-(hydroxyamino)-6-oxohexyl]acrylamide] | 5 µM | 26 µM | 90 µM | 6 µM | 90 µM | 56.87 | 83.89 | 80 µM | 12.3 µM | 
4 | CON(C)C(=O)CCCCCNC(=O)/C(=C\c1ccc(SC)cc1)c1ccc(F)cc1 [Example 18, (2Z)-3-(4-Thiomethylphenyl)-2-(4-fluorophenyl)-N-[6-(N,O dimethylamine)-6-oxohexyl]acrylamide] | 0.8 µM | 0.5 µM | > 100 µM | 55 µM | > 100 µM | 2.26 | 0.89 | > 100 µM | 18.8 µM | 
5 | O=C(CCCCCNC(=O)/C(=C\c1ccc(F)c(C(F)(F)F)c1)c1ccc([N+](=O)[O-])cc1)NO [Example 24, (2Z)-3-(4-Fluoro-3-trifluoromethylphenyl)-2-(4-nitrophenyl)-N-[6-(hydroxyamino)-6-oxohexyl]acrylamide] | 0.3 µM | 16 µM | 82 µM | 5 µM | > 100 µM | 46.1 | 99.5 | 75 µM | 7.21 µM | 
6 | O=C(CCCCCNC(=O)/C(=C\c1ccc(C(F)(F)F)cc1)c1ccc(F)cc1)NO [Example 47, (2Z)-3-(4-Trifluoromethylphenyl)-2-(4-fluorophenyl)-N-[6-(hydroxyamino)-6-oxohexyl]acrylamide] | 7.5 µM | 13 µM | 98 µM | 9 µM | 95 µM | 49.92 | 87.19 | > 100 µM | 9.8 µM | 
7 | O=C(CCCCCNC(=O)/C(=C\c1ccccc1[N+](=O)[O-])c1ccc(Cl)cc1)NO [Example 30, (2Z)-3-(2-Nitrophenyl)-2-(4-chlorophenyl)-N-[6-(hydroxyamino)-6-oxohexyl]acrylamide] | 3 µM | 30 µM | > 100 µM | 6 µM | > 100 µM | 52.95 | 84.69 | > 100 µM | 13 µM | 
8 | COc1cc(/C=C(\C(=O)NCCCCCC(=O)Nc2ccccc2O)c2ccc(O)cc2)cc(OC)c1OC [Example 6] | 60 µM | 44 µM | 85 µM | 38 µM | 91 µM | 15.9 | 36.1 | > 100 µM | 47 µM | 
9 | CSc1ccc(/C=C(\C(=O)NCCCCCC(=O)Nc2nccs2)c2ccc(F)cc2)cc1 [Example 20, (2Z)-3-(4-Thiomethylphenyl)-2-(4-fluorophenyl)-N-[6-(2-thiazoleamine)-6-oxohexyl]acrylamide] | 3 µM | 1 µM | > 100 µM | > 100 µM | > 100 µM |  | 5.57 | > 100 µM | 2 µM | 
10 | COc1cc(/C=C(\C(=O)NCCCCCC(=O)Nc2ccccc2O)c2ccc(O)cc2)cc(OC)c1 [Example 5] | 65 µM | 50 µM | 100 µM | 35 µM | 90 µM | 19.6 | 35.3 | 92 µM | 50 µM | 
11 | O=C(CCCCCNC(=O)/C(=C\c1ccc(F)cc1Cl)c1ccccc1)NO [Example 31, (2Z)-3-(2-Chloro-4-fluorophenyl)-2-(phenyl)-N-[6-(hydroxyamino)-6-oxohexyl]acrylamide] | 6 µM | 9.7 µM | > 100 µM | 5 µM | 97 µM | 72.20 | 91.49 | > 100 µM | 6.9 µM | 
12 | COc1cc(/C=C(\C(=O)NCCCCCC(=O)NO)c2ccc(F)cc2)ccc1O [Example 46, (2Z)-3-(4-Hydroxy-3-methoxyphenyl)-2-(4-fluorophenyl)-N-[6-(hydroxyamino)-6-oxohexyl]acrylamide] | 3.5 µM | 5 µM | > 100 µM | 7 µM | > 100 µM | 60.53 | 70.82 | > 100 µM | 5 µM | 
13 | CSc1ccc(/C=C(\C(=O)NCCCCCC(=O)Nc2ncc([N+](=O)[O-])s2)c2ccc(F)cc2)cc1 [Example 17, (2Z)-3-(4-Thiomethylphenyl)-2-(4-fluorophenyl)-N-[6-(5-nitro-2-thiazoleamine)-6-oxohexyl]acrylamide] | 0.71 µM | 0.25 µM | > 100 µM | 0.03 µM | > 100 µM | 0.7 | 2.3 | > 100 µM | 0.3 µM | 
14 | COc1cc(/C=C(\C(=O)NCCCCCC(=O)N(C)OC)c2ccc(O)cc2)cc(OC)c1OC [Example 7, (2Z)-3-(3,4,5-Trimethoxyphenyl)-2-(4-hydroxyphenyl)-N-[6-(N,O dimethylamine)-6-oxohexyl]acrylamide] | 0.8 µM | 0.01 µM | 10 µM | 0.98 µM | > 100 µM | 7.3 | 3.8 | > 100 µM | 0.6 µM | 
